Laboratory results as given in the NIST ThermoML archive (doi:10.1016/j.fluid.2014.10.004).

Tests used:
[1] = refractive index (Na D-line) (dimensionless); conditions: 101.33 kPa, Liquid, Standard Abbe refractometry
[2] = 101.3 kPa, Liquid, Sing-around technique in a fixed-path interferometer
[3] = xn = mol fraction of the nth substance listed; conditions: 101.3 kPa, Liquid, Sing-around technique in a fixed-path interferometer
[4] = refractive index (Na D-line) (dimensionless); xn = mol fraction of the nth substance listed; conditions: 101.3 kPa, Liquid, Standard Abbe refractometry

ClCCCCl [1,3-dichloropropane]
Conditions | refractive index, 298.15 K | refractive index, 308.15 K | refractive index, 318.15 K | speed of sound, 298.15 K [m/s] | speed of sound, 308.15 K [m/s] | speed of sound, 318.15 K [m/s]
[1] | 1.44617 | 1.44123 | 1.43614 | – | – | –
[2] | – | – | – | 1236.5 | 1199.7 | 1163.2

ClC(Cl)C(Cl)Cl [1,1,2,2-tetrachloroethane]
Conditions | refractive index, 298.15 K | refractive index, 308.15 K | refractive index, 318.15 K | speed of sound, 298.15 K [m/s] | speed of sound, 308.15 K [m/s] | speed of sound, 318.15 K [m/s]
[1] | 1.49174 | 1.48654 | 1.48137 | – | – | –
[2] | – | – | – | 1150.6 | 1118.7 | 1087

CCCCCCl [1-chloropentane]
Conditions | refractive index, 298.15 K | refractive index, 308.15 K | refractive index, 318.15 K | speed of sound, 298.15 K [m/s] | speed of sound, 308.15 K [m/s] | speed of sound, 318.15 K [m/s]
[1] | 1.41015 | 1.40501 | 1.39984 | – | – | –
[2] | – | – | – | 1164.2 | 1124.9 | 1085.8

ClC(Cl)Cl [trichloromethane]
Conditions | refractive index, 298.15 K | refractive index, 308.15 K | refractive index, 318.15 K | speed of sound, 298.15 K [m/s] | speed of sound, 308.15 K [m/s] | speed of sound, 318.15 K [m/s]
[1] | 1.44209 | 1.43598 | 1.42986 | – | – | –
[2] | – | – | – | 984.42 | 950.45 | 916.63

ClCCCCCl [1,4-dichlorobutane]
Conditions | refractive index, 298.15 K | refractive index, 308.15 K | refractive index, 318.15 K | speed of sound, 298.15 K [m/s] | speed of sound, 308.15 K [m/s] | speed of sound, 318.15 K [m/s]
[1] | 1.45224 | 1.44756 | 1.44279 | – | – | –
[2] | – | – | – | 1286.6 | 1251 | 1215.7

C[N+](=O)[O-] [nitromethane]
Conditions | refractive index, 298.15 K | refractive index, 308.15 K | refractive index, 318.15 K | speed of sound, 298.15 K | speed of sound, 308.15 K | speed of sound, 318.15 K
[1] | 1.37951 [middle of 8 runs] | 1.37473 [middle of 7 runs] | 1.37001 [middle of 7 runs] | – | – | –
[2] | – | – | – | 1321.3 m/s [middle of 9 runs] | 1281.9 m/s [middle of 7 runs] | 1242.5 m/s [middle of 8 runs]

CCCCCl [1-chlorobutane]
Conditions | refractive index, 298.15 K | refractive index, 308.15 K | refractive index, 318.15 K | speed of sound, 298.15 K [m/s] | speed of sound, 308.15 K [m/s] | speed of sound, 318.15 K [m/s]
[1] | 1.39953 | 1.39413 | 1.38851 | – | – | –
[2] | – | – | – | 1119 | 1078 | 1037.3

C[N+](=O)[O-] [nitromethane] + CCCCCl
Conditions | refractive index, 298.15 K | refractive index, 308.15 K | refractive index, 318.15 K | speed of sound, 298.15 K [m/s] | speed of sound, 308.15 K [m/s] | speed of sound, 318.15 K [m/s]
[3], x2 = 0 | – | – | – | 1321.5 | 1282.1 | 1242.8
[3], x2 = 0.1107 | – | – | – | 1273.7 | 1234.3 | 1195
[3], x2 = 0.2174 | – | – | – | 1236.5 | 1197.1 | 1157.8
[3], x2 = 0.3236 | – | – | – | 1207.6 | 1168.1 | 1128.9
[3], x2 = 0.3932 | – | – | – | 1191.9 | 1152.3 | 1112.8
[3], x2 = 0.4856 | – | – | – | 1174.5 | 1134.7 | 1094.9
[3], x2 = 0.5569 | – | – | – | 1163.5 | 1123.2 | 1083.1
[3], x2 = 0.6626 | – | – | – | 1149.3 | 1109.1 | 1068.9
[3], x2 = 0.7722 | – | – | – | 1137.6 | 1096.8 | 1056.6
[3], x2 = 0.8646 | – | – | – | 1129.1 | 1088.3 | 1047.8
[4], x2 = 0 | 1.37917 | 1.37447 | 1.3695 | – | – | –
[4], x2 = 0.1107 | 1.38191 | 1.37698 | 1.3718 | – | – | –
[4], x2 = 0.2174 | 1.38445 | 1.37936 | 1.37406 | – | – | –
[4], x2 = 0.3236 | 1.38691 | 1.38174 | 1.37632 | – | – | –
[4], x2 = 0.3932 | 1.38839 | 1.38321 | 1.37772 | – | – | –
[4], x2 = 0.4856 | 1.39032 | 1.38511 | 1.37958 | – | – | –
[4], x2 = 0.5569 | 1.39177 | 1.38656 | 1.38104 | – | – | –
[4], x2 = 0.6626 | 1.39383 | 1.38853 | 1.38299 | – | – | –
[4], x2 = 0.7722 | 1.39577 | 1.39045 | 1.3848 | – | – | –
[4], x2 = 0.8646 | 1.39729 | 1.39196 | 1.38635 | – | – | –

CC(Cl)(Cl)Cl [1,1,1-trichloroethane]
Conditions | refractive index, 298.15 K | refractive index, 308.15 K | refractive index, 318.15 K | speed of sound, 298.15 K [m/s] | speed of sound, 308.15 K [m/s] | speed of sound, 318.15 K [m/s]
[1] | 1.43492 | 1.42908 | 1.42311 | – | – | –
[2] | – | – | – | 962.94 | 928.68 | 894.71

ClC(Cl)Cl [trichloromethane] + C[N+](=O)[O-]
x1 = 1
Conditions | refractive index, 298.15 K | refractive index, 308.15 K | refractive index, 318.15 K | speed of sound, 298.15 K [m/s] | speed of sound, 308.15 K [m/s] | speed of sound, 318.15 K [m/s]
[3] | – | – | – | 984.42 | 950.45 | 916.63
[4] | 1.44209 | 1.43598 | 1.42986 | – | – | –
